Reference: patent US20200009105A1, “PROSTACYCLIN, PROSTACYCLIN ANALOGS, AND METHODS OF TREATING OR PREVENTING REJECTION OF SOLID ORGAN TRANSPLANTS” (VANDERBILT UNIVERSITY, priority 2017, published 2020)
Where “and” joins values, the source holds several entries; their conditions need not be identical. Identical values can stand only once.

Experiments:
[1] = cited from earlier work
[2] = oral administration; cited from earlier work
[3] = target: IP (Homo sapiens, UniProt P43119); settings: compared with treprostinil; cited from earlier work
[4] = test system: Th2 cells; settings: in vitro, Th2 cells differentiated under IL-4 and anti-IFN-γ; cited from earlier work
[5] = test system: DCs; settings: cited from earlier work
[6] = test system: lung DCs; settings: mouse model; cited from earlier work
[7] = in vivo; cited from earlier work
[8] = test system: naïve CD4^+ T cells of WT and IP KO mice; assay: IL-33-induced type 2 cytokine production by naive CD4+ T cells (ELISA of culture supernatant); type: cell-based, mouse
Protocol: (§1) CD4^+ T cells were purified from the splenic cells of WT, or IP KO mice by a mouse naive CD4^+ T cell isolation kit II (Miltenyi Biotec, Auburn, Calif.). The purified CD4^+CD62L^+ T cell population contains 97.5% CD3^+CD4^+ cells as determined by flow cytometry. The purified CD4 T cells were resuspended at 1×10^6 cells/ml in RPMI 1640 medium (Mediatech, Herndon, Va.) supplemented with 10% FBS (HyClone, Logan, Utah), 4 mM of L-glutamine, 1 mM of sodium pyruvate, […] of 2-ME, 10 mM of HEPES, 100 U/ml penicillin, and 100 μg/ml streptomycin. The cells were stimulated with plate-bound anti-CD3 (10 μg/ml) and anti-CD28 (2 μg/ml; BD Biosciences, San Diego, Calif.) in 96-well flat-bottom plates and treated with IL-33 (20 ng/ml) plus cicaprost (a generous gift provided by Dr. Manuela Huebner, Bayer HealthCare, Berlin, Germany) at various concentrations or vehicle (water) control. The cells were cultured for 3 days. For T cell proliferation experiments, naive CD4^+ T cells were stained with 1 μM CFSE before cell culture and cicaprost treatment.
(§2) Cell culture supernatant was collected at day 2 for IL-2 measurement because IL-2 production by activated CD4^+ T cells peak at day 2 (unpublished data). At day 3, the culture supernatant was harvested for IL-4, IL-5 and IL-13 measurement. At day 2, the cells were harvested and the cell lysate was prepared for p-STAT5 measurement.
(§3) IL-2, IL-4, IL-5, and IL-13 in the culture supernatant were measured by DuoSet ELISA kits from R&D Systems according to the manufacturer's instructions. Phosphorylated STAT5 (p-STAT5) was measured by phosphor-STAT5A/B (Tyr694/Tyr699) InstantOne™ ELISA kit (Affymetrixes). Measurements below the limit of detection were assigned a value of half the lower limit of detection for purposes of statistical analyses.
To determine the effect of PGI2 signaling on IL-33-induced Th2 differentiation, naïve CD4^+ T cells of WT and IP KO mice, both on BALB/c background, were activated with anti-CD3 and anti-CD28 either with or without IL-33 and treated with cicaprost or vehicle for 3 days.

[9] = test system: CD4^+ T cells; assay: Intracellular cytokine staining for flow cytometry of IL-33-stimulated T cells; type: cell-based, mouse; settings: in the presence of IL-33, 3 days, vs vehicle
Protocol: (§4) CD4^+ T cells were purified from the splenic cells of WT, or IP KO mice by a mouse naive CD4^+ T cell isolation kit II (Miltenyi Biotec, Auburn, Calif.). The purified CD4^+CD62L^+ T cell population contains 97.5% CD3^+CD4^+ cells as determined by flow cytometry. The purified CD4 T cells were resuspended at 1×10^6 cells/ml in RPMI 1640 medium (Mediatech, Herndon, Va.) supplemented with 10% FBS (HyClone, Logan, Utah), 4 mM of L-glutamine, 1 mM of sodium pyruvate, […] of 2-ME, 10 mM of HEPES, 100 U/ml penicillin, and 100 μg/ml streptomycin. […]
(§5) At day 3 of cell culture, the cells were harvested for flow cytometric staining with fluorochrome-labeled antibodies against CD4^+ (Biolegend, San Diego, Calif.), Gata3 (Affymetrix, Santa Clara, Calif.), CD25 (BD Biosciences, San Jose, Calif.), or TSLPR (R&D Systems, Minneapolis, Minn.). An LSR II flow cytometer (BD Biosciences) was used for flow cytometry and the data were analyzed with FlowJo software (FlowJo, LLC, Ashland Oreg.). For cell proliferation assay, CFSE intensity of the cultured cells was determined at day 3 by flow cytometry. Cell division index was calculated with FlowJo software. […]

[10] = test system: Gata3; assay: Gata3 expression in CD4+ T cells by flow cytometry; type: cell-based, mouse; settings: WT mice, 1000 nM, IL-33, 3 days
Protocol: as §1, §5
The differentiation of naïve CD4^+ T cells into Th2 cells under IL-4 culture conditions requires the expression of the transcription factor Gata3 (18). To investigate whether Gata3 plays a role in the inhibitory effect of cicaprost on IL-33-induced type 2 cytokine production, the expression of Gata3 in CD4^+ T cells activated with IL-33 and treated with cicaprost at various concentrations or vehicle for 3 days was determined. […]

[11] = test system: CD4^+ T cells; assay: IL-2 production by CD4+ T cells (ELISA, day 2 supernatant); type: cell-based, mouse; settings: WT CD4+ T cells, IL-33, day 2
Protocol: as §4
IL-2, IL-4, IL-5, and IL-13 in the culture supernatant were measured by DuoSet ELISA kits from R&D Systems according to the manufacturer's instructions. Phosphorylated STAT5 (p-STAT5) was measured by phosphor-STAT5A/B (Tyr694/Tyr699) InstantOne™ ELISA kit (Affymetrixes). […]
In vitro activation of mouse naïve CD4^+ T cells results in the expression of IL-2, a growth factor critical for cell survival and proliferation (19). To investigate whether cicaprost inhibits IL-33-induced type 2 cytokine production by suppressing CD4^+ T cell IL-2 production and cell activation, IL-2 levels were measured in the culture supernatant.

[12] = test system: NFAT; assay: NFAT function assay (NFAT-luciferase reporter lentiviral vector); type: cell-based, mouse; settings: WT cells, after 3 days of cell culture
Protocol: To determine NFAT activation, a Cignal Lenti NFAT reporter (luc) kit (Qiagen, Hilden, Germany), was used to transduce naïve CD4^+ T cells. CD4^+ T cells (10^5) of WT and IP KO mice were transduced with 2×10^5 transduction units of lentiviral vector (MOI=2) and 30 μg transduction reagent in 60 μl of transduction medium without antibiotics for 24 h in 96 well plates coated with anti-CD3 and anti-CD28. The cells were then pooled, washed, seeded and treated with IL-33 plus either cicaprost or vehicle. After culture for 2 more days in the same plates, the cells were harvested and the cell lysate was used for luciferase assay with Luciferase Assay System with Reporter Lysis Buffer (Promega, Madison, Wis.). The luciferase activity indicates the levels of NFAT activation. To determine whether the suppressive effect of cicaprost on IL-2 production is associated with the inhibition of NFAT, a transcription factor that binds to the IL-2 gene promoter to activate IL-2 gene expression, an NFAT function assay was performed with an NFAT-luciferase reporter lentiviral vector system.

[13] = test system: CD4^+ T cells; assay: CD4+ T cell proliferation (CFSE dilution) and live cell counting; type: cell-based, mouse; settings: WT CD4+ T cells, 1000 nM, IL-33, day 3
Protocol: as §4, §5
To further analyze the effect of cicaprost on cell proliferation, naïve CD4^+ T cells were CFSE-labeled, activated with anti-CD3 and anti-CD28, and treated with IL-33 plus either vehicle or cicaprost. Cell proliferation was determined by CFSE dilution.

[14] = test system: CD25; assay: CD25 surface expression on CD4+ T cells by flow cytometry; type: cell-based, mouse; settings: 3 days, vs vehicle control
Protocol: as §1
(§6) At day 3 of cell culture, the cells were harvested for flow cytometric staining with fluorochrome-labeled antibodies against CD4^+ (Biolegend, San Diego, Calif.), Gata3 (Affymetrix, Santa Clara, Calif.), CD25 (BD Biosciences, San Jose, Calif.), or TSLPR (R&D Systems, Minneapolis, Minn.). An LSR II flow cytometer (BD Biosciences) was used for flow cytometry and the data were analyzed with FlowJo software (FlowJo, LLC, Ashland Oreg.). For cell proliferation assay, CFSE intensity of the cultured cells was determined at day 3 by flow cytometry. Cell division index was calculated with FlowJo software. At day 3, the cells were stained with the cell viability dye 4,6-diamidino-2-phenylindole (DAPI), and 123count™ eBeads (Affymetrix) were added to the cell solution for live cell counting by flow cytometry.
(§7) To determine whether cicaprost attenuates the IL-2 signaling pathway, CD4^+ T cells activated and treated with either cicaprost or vehicle for 3 days were stained with fluorochrome-labeled anti-CD25 antibody and analyzed by flow cytometry.

[15] = test system: TSLPR; assay: TSLPR expression on T cells by flow cytometry; type: cell-based, mouse; settings: WT or IP KO T cell culture in the presence of IL-33 (data not shown)
Protocol: as §6, §7

[16] = test system: STAT5; assay: Phosphorylated STAT5 in CD4+ T cell lysate (ELISA); type: cell-based, mouse; settings: WT cells, 2 days, IL-33
Protocol: as §2, §3
Binding of IL-2 to IL-2 receptor leads to the activation of JAK1 and JAK3 and the activation of the downstream transcription factors STAT5 (21). To test whether cicaprost downregulates IL-2 receptor signaling, the levels of phosphorylated STAT5 were measured in CD4^+ T cells harvested 2 days after the cell activation and treatment with IL-33 plus either vehicle or cicaprost.

[17] = test system: type 2 innate lymphoid cells (ILC2); settings: cited from earlier work
[18] = test system: ILC2; settings: WT mice; cited from earlier work
[19] = target: PGE2 receptor EP2 (Homo sapiens, UniProt P43116); settings: cited from earlier work
[20] = rat, chronic administration; cited from earlier work
[21] = IP KO CD4+ T cells, anti-CD3/anti-CD28 + IL-33, 3 days
[22] = WT CD4+ T cells, anti-CD3/anti-CD28 + IL-33, 3 days
[23] = in the presence of either 10 ng/ml or 50 ng/ml exogenous IL-2, IL-33, 3 days

IP, sequence (P43119 whole entry): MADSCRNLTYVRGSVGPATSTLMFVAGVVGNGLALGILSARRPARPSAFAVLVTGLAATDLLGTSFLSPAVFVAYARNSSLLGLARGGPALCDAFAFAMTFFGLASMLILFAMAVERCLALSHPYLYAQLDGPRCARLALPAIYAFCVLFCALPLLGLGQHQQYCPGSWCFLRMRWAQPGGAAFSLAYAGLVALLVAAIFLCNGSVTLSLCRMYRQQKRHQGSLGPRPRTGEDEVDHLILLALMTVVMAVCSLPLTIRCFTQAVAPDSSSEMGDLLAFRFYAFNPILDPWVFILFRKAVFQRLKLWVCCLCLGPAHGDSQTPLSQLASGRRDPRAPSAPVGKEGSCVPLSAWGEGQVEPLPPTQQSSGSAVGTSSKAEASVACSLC
PGE2 receptor EP2, sequence (P43116 whole entry): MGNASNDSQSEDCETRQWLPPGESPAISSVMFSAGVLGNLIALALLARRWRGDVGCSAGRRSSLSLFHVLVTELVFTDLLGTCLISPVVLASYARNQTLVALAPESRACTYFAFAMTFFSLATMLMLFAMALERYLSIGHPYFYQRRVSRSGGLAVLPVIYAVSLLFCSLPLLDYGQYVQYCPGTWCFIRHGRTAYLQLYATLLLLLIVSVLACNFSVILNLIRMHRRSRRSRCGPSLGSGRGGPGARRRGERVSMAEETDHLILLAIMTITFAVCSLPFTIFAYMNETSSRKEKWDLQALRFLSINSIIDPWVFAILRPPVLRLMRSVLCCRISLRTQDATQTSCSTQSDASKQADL

## CCCCC[C@H](O)/C=C/[C@@H]1[C@H]2C/C(=C/CCCC(=O)O)O[C@H]2C[C@H]1O [PGI2, prostacyclin]
[1]
  half-life (biologic half-life): 46 seconds and 60-90 seconds

## CC#CCC(C)[C@H](O)/C=C/[C@@H]1[C@H]2C/C(=C/CCCC(=O)O)C[C@H]2C[C@H]1O (stereo partly drawn) [Iloprost]
[1]
  half-life: 13 min
[2]
  iloprost reaching the systemic circulation: less than 20%
[3]
  specificity for IP: greater specificity for IP than treprostinil
[4]
  production of effector cytokine IL-4: inhibited
  production of effector cytokine IL-5: inhibited
[5]
  LPS-induced expression of CD40 by DCs: suppressed
  LPS-induced expression of CD86 by DCs: suppressed
  LPS-induced expression of MHC class II molecules by DCs: suppressed
  ability of DCs to stimulate antigen-specific CD4 T cell proliferation: inhibited
  ability of DCs to stimulate production of the Th2 cytokine IL-5: inhibited
  ability of DCs to stimulate production of the Th2 cytokine IL-13: inhibited
[6]
  maturation and migration of lung DCs to the mediastinal LNs: inhibited
[7]
  safety of administration to pulmonary hypertension patients: safe

## CCC#CC[C@H](C)[C@H](O)C#C[C@@H]1[C@H]2C/C(=C/COCC(=O)O)C[C@H]2C[C@H]1O [cicaprost]
[8]; [21]
  IL-4 production: did not change
  IL-5 production: did not change
  IL-13 production: did not change
[8]; [22]
  IL-4 production: dose dependently decreased
  IL-5 production: dose dependently decreased
  IL-13 production: dose dependently decreased
[8]; [23]
  IL-5 production: still significantly inhibited
  IL-13 production: still significantly inhibited
[9]
  total numbers of IL-4+ T cells: dose-dependently decreased
  total numbers of IL-13+ T cells: dose-dependently decreased
[10]
  Gata3 mean fluorescence intensity: significantly decreased
  percentages of Gata3-expressing CD4+ T cells: significantly decreased
  total number of Gata3-expressing CD4+ T cells: significantly decreased
[11]
  IL-2 production: dose-dependently suppressed
[12]
  NFAT function (luciferase activity): significantly suppressed
[13]
  cell division index: significantly decreased
  total number of live cells: significantly decreased
[14]
  CD25 mean fluorescence intensity: dose-dependently decreased
  percentages of CD25 expressing cells: dose-dependently decreased
  total numbers of CD25 expressing cells: dose-dependently decreased
[15]
  TSLPR MFI: did not change
  percentages of TSLPR expressing cells: did not change
[16]
  STAT5 phosphorylation: dose-dependently attenuated
[4]
  production of effector cytokine IL-4: inhibited
  production of effector cytokine IL-5: inhibited
[5]
  LPS-induced expression of CD40 by DCs: suppressed
  LPS-induced expression of CD86 by DCs: suppressed
  LPS-induced expression of MHC class II molecules by DCs: suppressed
  ability of DCs to stimulate antigen-specific CD4 T cell proliferation: inhibited
  ability of DCs to stimulate production of the Th2 cytokine IL-5: inhibited
  ability of DCs to stimulate production of the Th2 cytokine IL-13: inhibited
[17]
  IL-33-induced cytokine responses of ILC2: inhibited
[18]
  ILC2 response: inhibited

## CCCCC[C@H](O)CC[C@@H]1[C@H]2Cc3cccc(OCC(=O)O)c3C[C@H]2C[C@H]1O [Treprostinil]
[1]
  half-life compared with epoprostenol: longer
[19]
  activation of PGE2 receptor EP2: also activated
[20]
  degree of experimentally-induced pulmonary hypertension: decreasing
[7]
  safety of administration to pulmonary hypertension patients: safely used
